Data set [1] has as its target T1, human PPAR gamma (Homo sapiens, UniProt P37231).
T1 construct: expressed in transfected cells; host or cells: CV-1 cells
T1 sequence (P37231 238-503 limits assumed): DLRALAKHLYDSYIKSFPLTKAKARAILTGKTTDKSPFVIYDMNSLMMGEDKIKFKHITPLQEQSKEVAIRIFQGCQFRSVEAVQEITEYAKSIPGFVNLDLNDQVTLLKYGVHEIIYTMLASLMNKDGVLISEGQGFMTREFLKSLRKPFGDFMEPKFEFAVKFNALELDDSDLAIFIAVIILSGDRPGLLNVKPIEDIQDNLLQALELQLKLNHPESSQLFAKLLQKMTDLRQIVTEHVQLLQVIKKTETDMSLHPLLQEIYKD
Kind of data set: Transient transfection (transactivation) assay in CV-1 cells, hPPAR gamma. It is filed as cell-based. As to conditions: PPAR transactivation activity, GAL4 chimera, concentration giving 50% of maximum activity, read-out: human γEC50. From the text: (§1) Compounds were screened for functional potency in transient transfection assays in CV-1 cells for their ability to activate the PPAR subtypes (transactivation assay). A previously established chimeric receptor system was utilized to allow comparison of the relative transcriptional activity of the receptor subtypes on the same target gene and to prevent endogenous receptor activation from complicating the interpretation of results. See, for example, Lehmann, J. M.; Moore, L. B.; Smith-Oliver, T. A.; Wilkison, W. O.; Willson, T. M.; Kliewer, S. A., An antidiabetic thiazolidinedione is a high affinity ligand for peroxisome proliferator-activated receptor γ (PPARγ), J. Biol. Chem., 1995, 270, 12953–6. The ligand binding domains for murine and human PPAR alpha, PPAR gamma, and PPAR delta were each fused to the yeast transcription factor GAL4 DNA binding domain. CV-1 cells were transiently transfected with expression vectors for the respective PPAR chimera along with a reporter construct containing five copies of the GAL4 DNA binding site driving expression of secreted placental alkaline phosphatase (SPAP) and β-galactosidase. After 16 h, the medium was exchanged to DME medium supplemented with 10% delipidated fetal calf serum and the test compound at the appropriate concentration. After an additional 24 h, cell extracts were prepared and assayed for alkaline phosphatase and β-galactosidase activity. Alkaline phosphatase activity was corrected for transfection efficiency using the β-galactosidase activity as an internal standard (see, for example, Kliewer, S. A., et. al. Cell 83, 813–819 (1995)). Rosiglitazone (BRL 49653) was used as a positive control in the hPPAR gamma assay. The positive control in the hPPAR alpha assays was 2-methyl-2-[4-{[(4-methyl-2-[4-trifluoromethylphenyl]-thiazol-5-yl-carbonyl)amino]methyl}-phenoxy]propionic acid. The positive control for PPAR delta assays was 2-{2-methyl-4-[({4-methyl-2-{trifluoromethyl)phenyl]-1,3-thiazol-5-yl}methyl)sulfanyl]phenoxy}acetic acid.

The target in data set [2] is T2, human PPAR alpha (Homo sapiens, UniProt Q07869).
T2 construct: expressed in transfected cells; host or cells: CV-1 cells
T2 sequence (Q07869 239-466 limits assumed): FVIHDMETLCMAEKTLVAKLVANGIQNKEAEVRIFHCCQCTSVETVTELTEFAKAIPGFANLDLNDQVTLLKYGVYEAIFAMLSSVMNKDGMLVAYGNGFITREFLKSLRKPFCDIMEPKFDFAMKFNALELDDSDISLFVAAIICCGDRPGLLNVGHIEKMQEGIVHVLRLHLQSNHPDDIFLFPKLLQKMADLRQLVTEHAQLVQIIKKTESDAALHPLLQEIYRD
The experiment in a line: Transient transfection (transactivation) assay in CV-1 cells, hPPAR alpha. It is filed as cell-based. As to conditions: PPAR transactivation activity, GAL4 chimera, concentration giving 50% of maximum activity, read-out: human αEC50.
Excerpt: as §1

Data set [3] addresses T3, human PPAR delta (Homo sapiens, UniProt Q03181).
T3 construct: expressed in transfected cells; host or cells: CV-1 cells
T3 sequence (Q03181 211-439 limits assumed): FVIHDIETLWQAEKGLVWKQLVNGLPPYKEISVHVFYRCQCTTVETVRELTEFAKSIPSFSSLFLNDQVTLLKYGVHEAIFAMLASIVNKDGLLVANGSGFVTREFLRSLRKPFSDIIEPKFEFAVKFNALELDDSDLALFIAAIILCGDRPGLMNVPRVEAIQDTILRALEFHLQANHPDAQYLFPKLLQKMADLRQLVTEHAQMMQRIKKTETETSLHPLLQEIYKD
The experiment in a line: Transient transfection (transactivation) assay in CV-1 cells, hPPAR delta. The class given is cell-based. The conditions noted are these: PPAR transactivation activity, GAL4 chimera, concentration giving 50% of maximum activity, read-out: human δEC50.
Excerpt: as §1

As a reminder, the melting point is the temperature, or range, at which the solid turns liquid.

`Cc1cc(OCc2nc(-c3ccc(C(C)(C)C)cc3)no2)ccc1OC(C)(C)C(=O)O` [Example 10, 2-methyl-2-[4-(3-(4-tert-butyl-phenyl)-[1,2,4]oxadiazol-5-ylmethoxy]-2-methyl-phenoxy]-propionic acid]: the melting point is 155 to 157 °C. Also, the EC50 in data set [1] came to 11.4 µM. Further, the EC50 in data set [2] stood at 0.024 µM.

In turn, `Cc1cc(OCc2nc(-c3ccc(C(C)C)cc3)no2)ccc1OC(C)(C)C(=O)O` [Example 11] showed a melting point of 138 °C. Moreover, the EC50 in data set [1] turned out to be 10 µM. Further, in data set [2], the EC50 came to 0.059 µM. Also, the EC50 in data set [3] is 9.31 µM.

`Cc1cc(OCc2nc(-c3ccc(C(F)(F)F)cc3)no2)ccc1OC(C)(C)C(=O)O` [Example 12, 2-methyl-2-{4-[3-(4-trifluoromethyl-phenyl)-[1,2,4]oxadiazol-5-ylmethoxy]-2-methyl-phenoxy}-propionic acid] gave a melting point of 170 °C. Further, the EC50 in data set [1] turned out to be 4.3 µM. The EC50 in data set [2] amounted to 0.036 µM. Also, the EC50 in data set [3] was found to be 0.311 µM.

The compound `CC(C)(Oc1ccc(OCc2nc(-c3ccc(C(C)(C)C)cc3)no2)cc1)C(=O)O` [Example 13, 2-methyl-2-[4-(3-(4-tert-butyl-phenyl)-[1,2,4]oxadiazol-5-ylmethoxy]-phenoxy]-propionic acid] registered a melting point of 138 to 140 °C. The EC50 in data set [1] turned out to be 0.85 µM. For the same compound, the EC50 in data set [2] stood at 0.092 µM.

As to `CC(C)c1ccc(-c2noc(COc3ccc(OC(C)(C)C(=O)O)cc3)n2)cc1` [Example 14], the melting point was determined as 117 °C. Further, the EC50 in data set [1] is 10 µM. In addition, the EC50 in data set [2] was 0.077 µM.

For `CC(C)(Oc1ccc(OCc2nc(-c3ccc(C(F)(F)F)cc3)no2)cc1)C(=O)O` [Example 15, 2-methyl-2-{4-[3-(4-trifluoromethyl-phenyl)-[1,2,4]oxadiazol-5-ylmethoxy]-phenoxy}-propionic acid], the melting point was 164 °C. Also, in data set [1], the EC50 was found to be 10 µM. In data set [2], the EC50 is 0.098 µM. The EC50 in data set [3] came out at 4.51 µM.

`CC(C)c1ccc(-c2nc(COc3ccc(OC(C)(C)C(=O)O)cc3)no2)cc1` [Example 16, 2-methyl-2-{4-[5-(4-isopropyl-phenyl)-[1,2,4]oxadiazol-3-ylmethoxy]-phenoxy}propionic acid]: the EC50 turned out to be 10 µM in data set [1], 0.029 µM in data set [2] and 8.4 µM in data set [3].

On to `CC(C)(Oc1ccc(OCc2noc(-c3ccc(C(C)(C)C)cc3)n2)cc1)C(=O)O` [Example 17, 2-methyl-2-{4-[5-(4-tert-butyl-phenyl)-[1,2,4]oxadiazol-3-ylmethoxy]-phenoxy}propionic acid], for which the EC50 stood at 10 µM in data set [1] and 0.04 µM in data set [2].

The values are drawn from patent publication US7141591B2, “1,2,4-oxadiazole derivatives as hPPAR alpha agonists” (SmithKline Beecham Corporation, priority 2000, dated 2006).
